Data published in patent publication US20250163104A1, “MACROCYCLIC IMMUNOMODULATORS” (priority 2021, published 2025).
Where a SMILES comes first, the peptide text is derived from it. Bridges are numbered along the chain shown (N, C = ends). [ ]: non-standard residue; d: D form. ξ: configuration not given here. Bip = N[C@@H](Cc1ccc(-c2ccccc2)cc1)C(=O)O; Phe(3-Me) = Cc1cccc(C[C@H](N)C(=O)O)c1; 3Pal = N[C@@H](Cc1cccnc1)C(=O)O; 4Pal = N[C@@H](Cc1ccncc1)C(=O)O; Cha = N[C@@H](CC1CCCCC1)C(=O)O; Ile(3ξ) = CCC(C)[C@H](N)C(=O)O; Orn = NCCC[C@H](N)C(=O)O; Dab = NCC[C@H](N)C(=O)O; Dap = NC[C@H](N)C(=O)O

Target: T1, human PD-1 / PD-L1-Ig binding on Jurkat cell line over-expressing human PD-1 (Jurkat-PD-1) (Homo sapiens, UniProt Q15116)
T1 construct: expressed in transfected cells; host or cells: Jurkat
Test: Jurkat-PD-1 Cell Binding High-Content Screening Assay (CBA)
Format: cell-based
Conditions: Jurkat-PD-1 cells, PE-labeled PD-L1-Ig 20 nM final; read-out: Jurkat HPD1_PDL1 IC50
Method in brief: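 PE-PD-L1-Ig 20 nM final; cells in DMEM/10% FCS; cpd pre-incubation 2 h, 37° C; ligand 1 h; PFA fix + Hoechst 33342; high-content imaging read-out.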

T1 sequence (Q15116 25-288): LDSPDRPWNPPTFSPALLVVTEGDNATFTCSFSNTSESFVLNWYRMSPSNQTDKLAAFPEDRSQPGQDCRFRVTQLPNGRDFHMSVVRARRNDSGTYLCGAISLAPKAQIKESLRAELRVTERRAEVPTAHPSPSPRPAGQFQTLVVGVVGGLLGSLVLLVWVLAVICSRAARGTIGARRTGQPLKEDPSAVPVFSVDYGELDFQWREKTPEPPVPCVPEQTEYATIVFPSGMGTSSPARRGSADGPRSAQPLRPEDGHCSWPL

| SMILES | IC50 [nM] |
| --- | --- |
| CCC(C)[C@@H]1NC(=O)[C@H](Cc2ccc(-c3ccccc3)cc2)NC(=O)[C@H](C(C)C)NC(=O)[C@H](Cc2c[nH]c3ccccc23)NC(=O)[C@H](CC(=O)O)NC(=O)[C@H](Cc2ccc(-c3cccc(C(=O)O)c3)cc2)NC(=O)[C@H](Cc2ccc(OCC(=O)O)cc2)NC(=O)CSC[C@@H](C(=O)N[C@@H](C)C(N)=O)NC(=O)[C@H]([C@@H](C)O)NC(=O)[C@H](C(C)C)NC(=O)[C@H](CC2CCCCC2)NC(=O)[C@H](CCN)NC(=O)[C@@H](CC(C)C)NC(=O)[C@H](CCCN)NC1=O (stereo partly shown) [Compound 2220] | 34.6 |
| CCC(C)[C@@H]1NC(=O)[C@H](Cc2ccc(-c3ccccc3)cc2)NC(=O)[C@H](C(C)C)NC(=O)[C@H](Cc2c[nH]c3ccccc23)NC(=O)[C@H](CC(=O)O)NC(=O)[C@H](Cc2ccc(-c3cccc(C(=O)O)c3)cc2)NC(=O)[C@H](Cc2ccncc2)NC(=O)CSC[C@@H](C(=O)N[C@@H](C)C(N)=O)NC(=O)[C@H]([C@@H](C)O)NC(=O)[C@H](C(C)C)NC(=O)[C@H](CC2CCCCC2)NC(=O)[C@H](CCN)NC(=O)[C@@H](CC(C)C)NC(=O)[C@H](CCCN)NC1=O (stereo partly shown) [Compound 2221] | 32.1 |
| CCC(C)[C@@H]1NC(=O)[C@H](Cc2ccc(-c3ccccc3)cc2)NC(=O)[C@H](C(C)C)NC(=O)[C@H](Cc2cccc(C)c2)NC(=O)[C@H](CC(=O)O)NC(=O)[C@H](Cc2ccc(-c3cccc(C(=O)O)c3)cc2)NC(=O)[C@H](CC(N)=O)NC(=O)CSC[C@@H](C(=O)N[C@@H](C)C(N)=O)NC(=O)[C@H]([C@@H](C)O)NC(=O)[C@H](C(C)C)NC(=O)[C@H](CC2CCCCC2)NC(=O)[C@H](CCN)NC(=O)[C@@H](CC(C)C)NC(=O)[C@H](CCCN)NC1=O (stereo partly shown) [Compound 2222] | 25 |
| CCC(C)[C@@H]1NC(=O)[C@H](Cc2ccc(-c3ccccc3)cc2)NC(=O)[C@H](C(C)C)NC(=O)[C@H](Cc2cccc(C)c2)NC(=O)[C@H](CC(=O)O)NC(=O)[C@H](Cc2ccc(-c3cccc(C(=O)O)c3)cc2)NC(=O)[C@H](Cc2ccccc2)NC(=O)CSC[C@@H](C(=O)N[C@@H](C)C(N)=O)NC(=O)[C@H]([C@@H](C)O)NC(=O)[C@H](C(C)C)NC(=O)[C@H](CC2CCCCC2)NC(=O)[C@H](CCN)NC(=O)[C@@H](CC(C)C)NC(=O)[C@H](CCCN)NC1=O (stereo partly shown) [Compound 2223] | 74.8 |
| CCC(C)[C@@H]1NC(=O)[C@H](Cc2ccc(-c3ccccc3)cc2)NC(=O)[C@H](C(C)C)NC(=O)[C@H](Cc2cccc(C)c2)NC(=O)[C@H](CC(=O)O)NC(=O)[C@H](Cc2ccc(-c3cccc(C(=O)O)c3)cc2)NC(=O)[C@H](Cc2ccc(OCC(=O)O)cc2)NC(=O)CSC[C@@H](C(=O)N[C@@H](C)C(N)=O)NC(=O)[C@H]([C@@H](C)O)NC(=O)[C@H](C(C)C)NC(=O)[C@H](CC2CCCCC2)NC(=O)[C@H](CCN)NC(=O)[C@@H](CC(C)C)NC(=O)[C@H](CCCN)NC1=O (stereo partly shown) [Compound 2225] | 182 |
| CCC(C)[C@@H]1NC(=O)[C@H](Cc2ccc(-c3ccccc3)cc2)NC(=O)[C@H](C(C)C)NC(=O)[C@H](Cc2cccc(C)c2)NC(=O)[C@H](CC(=O)O)NC(=O)[C@H](Cc2ccc(-c3cccc(C(=O)O)c3)cc2)NC(=O)[C@H](Cc2ccncc2)NC(=O)CSC[C@@H](C(=O)N[C@@H](C)C(N)=O)NC(=O)[C@H]([C@@H](C)O)NC(=O)[C@H](C(C)C)NC(=O)[C@H](CC2CCCCC2)NC(=O)[C@H](CCN)NC(=O)[C@@H](CC(C)C)NC(=O)[C@H](CCCN)NC1=O (stereo partly shown) [Compound 2226] | 25.4 |
| CCC(C)[C@@H]1NC(=O)[C@H](Cc2ccc(-c3ccccc3)cc2)NC(=O)[C@H](C(C)C)NC(=O)[C@H](Cc2cccc(C)c2)NC(=O)[C@H](CC(=O)O)NC(=O)[C@H](Cc2cccnc2)NC(=O)[C@H](Cc2ccccc2)NC(=O)CSC[C@@H](C(=O)N[C@@H](C)C(N)=O)NC(=O)[C@H]([C@@H](C)O)NC(=O)[C@H](C(C)C)NC(=O)[C@H](CC2CCCCC2)NC(=O)[C@H](CCN)NC(=O)[C@@H](CC(C)C)NC(=O)[C@H](CCCN)NC1=O (stereo partly drawn) [Compound 2234] ({CH2CO}-F[3Pal]D[Phe(3-Me)]V[Bip][Ile(3ξ)][Orn][dL][Dab][Cha]VTCA-NH2; thioether N-14) | 70.8 |
| CCC(C)[C@@H]1NC(=O)[C@H](Cc2ccc(-c3ccccc3)cc2)NC(=O)[C@H](C(C)C)NC(=O)[C@H](Cc2cccc(C)c2)NC(=O)[C@H](CC(=O)O)NC(=O)[C@H](Cc2cccnc2)NC(=O)[C@H](Cc2ccncc2)NC(=O)CSC[C@@H](C(=O)N[C@@H](C)C(N)=O)NC(=O)[C@H]([C@@H](C)O)NC(=O)[C@H](C(C)C)NC(=O)[C@H](CC2CCCCC2)NC(=O)[C@H](CCN)NC(=O)[C@@H](CC(C)C)NC(=O)[C@H](CCCN)NC1=O (stereo partly shown) [Compound 2237] | 22.8 |

These reach a lower IC50. Values come first.

| IC50 [nM] | SMILES |
| --- | --- |
| 21.5 | CCC(C)[C@@H]1NC(=O)[C@H](Cc2ccc(-c3ccccc3)cc2)NC(=O)[C@H](C(C)C)NC(=O)[C@H](Cc2c[nH]c3ccccc23)NC(=O)[C@H](CC(=O)O)NC(=O)[C@H](Cc2cccnc2)NC(=O)[C@H](Cc2ccccc2)NC(=O)CSC[C@@H](C(=O)N[C@@H](C)C(N)=O)NC(=O)[C@H]([C@@H](C)O)NC(=O)[C@H](C(C)C)NC(=O)[C@H](CC2CCCCC2)NC(=O)[C@H](CCN)NC(=O)[C@@H](CC(C)C)NC(=O)[C@H](CCCN)NC1=O (stereo partly drawn) [Compound 2229] ({CH2CO}-F[3Pal]DWV[Bip][Ile(3ξ)][Orn][dL][Dab][Cha]VTCA-NH2; thioether N-14) |
| 18.2 | CCC(C)[C@@H]1NC(=O)[C@H](Cc2ccc(-c3ccccc3)cc2)NC(=O)[C@H](C(C)C)NC(=O)[C@H](Cc2c[nH]c3ccccc23)NC(=O)[C@H](CC(=O)O)NC(=O)[C@H](Cc2ccncc2)NC(=O)[C@H](Cc2ccncc2)NC(=O)CSC[C@@H](C(=O)N[C@@H](C)C(N)=O)NC(=O)[C@H]([C@@H](C)O)NC(=O)[C@H](C(C)C)NC(=O)[C@H](CC2CCCCC2)NC(=O)[C@H](CCN)NC(=O)[C@@H](CC(C)C)NC(=O)[C@H](CCCN)NC1=O (stereo partly drawn) [Compound 2238] ({CH2CO}-[4Pal][4Pal]DWV[Bip][Ile(3ξ)][Orn][dL][Dab][Cha]VTCA-NH2; thioether N-14) |
| 16.1 | CCC(C)[C@@H]1NC(=O)[C@H](Cc2ccc(-c3ccccc3)cc2)NC(=O)[C@H](C(C)C)NC(=O)[C@H](Cc2c[nH]c3ccccc23)NC(=O)[C@H](CC(=O)O)NC(=O)[C@H](Cc2cccnc2)NC(=O)[C@H](CC(N)=O)NC(=O)CSC[C@@H](C(=O)N[C@@H](C)C(N)=O)NC(=O)[C@H]([C@@H](C)O)NC(=O)[C@H](C(C)C)NC(=O)[C@H](CC2CCCCC2)NC(=O)[C@H](CCN)NC(=O)[C@@H](CC(C)C)NC(=O)[C@H](CCCN)NC1=O (stereo partly drawn) [Compound 2228] ({CH2CO}-N[3Pal]DWV[Bip][Ile(3ξ)][Orn][dL][Dab][Cha]VTCA-NH2; thioether N-14) |
| 16.1 | CCC(C)[C@@H]1NC(=O)[C@H](Cc2ccc(-c3ccccc3)cc2)NC(=O)[C@H](C(C)C)NC(=O)[C@H](Cc2c[nH]c3ccccc23)NC(=O)[C@H](CC(=O)O)NC(=O)[C@H](Cc2cccnc2)NC(=O)[C@H](CN)NC(=O)CSC[C@@H](C(=O)N[C@@H](C)C(N)=O)NC(=O)[C@H]([C@@H](C)O)NC(=O)[C@H](C(C)C)NC(=O)[C@H](CC2CCCCC2)NC(=O)[C@H](CCN)NC(=O)[C@@H](CC(C)C)NC(=O)[C@H](CCCN)NC1=O (stereo partly drawn) [Compound 2230] ({CH2CO}-[Dap][3Pal]DWV[Bip][Ile(3ξ)][Orn][dL][Dab][Cha]VTCA-NH2; thioether N-14) |
| 14.1 | CCC(C)[C@@H]1NC(=O)[C@H](Cc2ccc(-c3ccccc3)cc2)NC(=O)[C@H](C(C)C)NC(=O)[C@H](Cc2cccc(C)c2)NC(=O)[C@H](CC(=O)O)NC(=O)[C@H](Cc2ccc(-c3cccc(C(=O)O)c3)cc2)NC(=O)[C@H](CN)NC(=O)CSC[C@@H](C(=O)N[C@@H](C)C(N)=O)NC(=O)[C@H]([C@@H](C)O)NC(=O)[C@H](C(C)C)NC(=O)[C@H](CC2CCCCC2)NC(=O)[C@H](CCN)NC(=O)[C@@H](CC(C)C)NC(=O)[C@H](CCCN)NC1=O (stereo partly shown) [Compound 2224] |
| 13.6 | CCC(C)[C@@H]1NC(=O)[C@H](Cc2ccc(-c3ccccc3)cc2)NC(=O)[C@H](C(C)C)NC(=O)[C@H](Cc2c[nH]c3ccccc23)NC(=O)[C@H](CC(=O)O)NC(=O)[C@H](Cc2cccnc2)NC(=O)[C@H](Cc2ccncc2)NC(=O)CSC[C@@H](C(=O)N[C@@H](C)C(N)=O)NC(=O)[C@H]([C@@H](C)O)NC(=O)[C@H](C(C)C)NC(=O)[C@H](CC2CCCCC2)NC(=O)[C@H](CCN)NC(=O)[C@@H](CC(C)C)NC(=O)[C@H](CCCN)NC1=O (stereo partly drawn) [Compound 2232] ({CH2CO}-[4Pal][3Pal]DWV[Bip][Ile(3ξ)][Orn][dL][Dab][Cha]VTCA-NH2; thioether N-14) |
| 12 | CCC(C)[C@@H]1NC(=O)[C@H](Cc2ccc(-c3ccccc3)cc2)NC(=O)[C@H](C(C)C)NC(=O)[C@H](Cc2cccc(C)c2)NC(=O)[C@H](CC(=O)O)NC(=O)[C@H](Cc2cccnc2)NC(=O)[C@H](CC(N)=O)NC(=O)CSC[C@@H](C(=O)N[C@@H](C)C(N)=O)NC(=O)[C@H]([C@@H](C)O)NC(=O)[C@H](C(C)C)NC(=O)[C@H](CC2CCCCC2)NC(=O)[C@H](CCN)NC(=O)[C@@H](CC(C)C)NC(=O)[C@H](CCCN)NC1=O (stereo partly drawn) [Compound 2233] ({CH2CO}-N[3Pal]D[Phe(3-Me)]V[Bip][Ile(3ξ)][Orn][dL][Dab][Cha]VTCA-NH2; thioether N-14) |
| 9.1 | CCC(C)[C@@H]1NC(=O)[C@H](Cc2ccc(-c3ccccc3)cc2)NC(=O)[C@H](C(C)C)NC(=O)[C@H](Cc2cccc(C)c2)NC(=O)[C@H](CC(=O)O)NC(=O)[C@H](Cc2cccnc2)NC(=O)[C@H](CN)NC(=O)CSC[C@@H](C(=O)N[C@@H](C)C(N)=O)NC(=O)[C@H]([C@@H](C)O)NC(=O)[C@H](C(C)C)NC(=O)[C@H](CC2CCCCC2)NC(=O)[C@H](CCN)NC(=O)[C@@H](CC(C)C)NC(=O)[C@H](CCCN)NC1=O (stereo partly shown) [Compound 2235] |
